The results in this text go back to EP3892734B1, “SCREENING METHODS AND THERAPEUTIC APPLICATIONS BASED ON BACTERIAL MOTILITY INHIBITION” (Ludwig-Maximilians-Universität München, priority 2020, dated 2021).

As a reminder, the IC50 is the concentration needed to halve the response being measured.

For experiment [1], the system named is H. pylori flaA-luciferase reporter strain N6. Briefly: microbe, parasite or virus in culture. Type of experiment: cell-based, Helicobacter pylori. The text has this: The H. pylori flaA promoter was fused with a luciferase operon (luxAB) from Vibrio harveyi in a H. pylori suicide plasmid (Niehus, Ye, Suerbaum, & Josenhans, 2002). The flaA reporter fusion was recombined into the H. pylori chromosome and the resulting strain tested to be strongly luminescence positive. The reporter strain (N6 flaA-lux4B) activated luminescence to about 40,000 to 60,000 counts per second using luciferase substrate at an OD600 of 0.8 (mid-log phase) in liquid culture. The negative control value of a non-reporter strain or reporter strain without luminescence substrate was close to zero. […] The Z-Factor (Zhang et al., 1999) determined for the assay with various bacterial inhibitors measured in quadruplicates or triplicates was routinely between 0.6 and 0.7, with a confidence interval of 95%.
H. pylori luminescence reporter strains were passaged on blood agar plates less than 22 hours prior to the start of the experiment. The passage number for these assays was not higher than five to preserve the strain's properties and genetic stability. Luciferase reaction buffer was prepared as follows: 50 mM disodium phosphate (Na2HPO4) and 2% BSA were dissolved in HPLC water, filter sterilized, aliquoted and frozen at - 20°C.
Bacteria were harvested in brain-heart infusion medium (BHI, 3% yeast extract with 5% horse serum added) and adjusted to an OD600 of 0.8 at room temperature. 50 µl of the bacterial suspension were added per well of a 96 well plate (non-binding, Greiner Bio-One 655901). 2 µl of each of the test compounds (provided as a 10 mM DMSO solution) were added to the sample wells. The same amount of pure, diluted DMSO was added to the control wells for a concentration of a maximum of 4% DMSO per well, since higher concentrations will interfere with metabolic functions of H. pylori and cause false negative results. The microwell plate was incubated inside a sterile sealed PM Gas Bag (BIOLOG #3032) together with a CampyGen Compact pack (Oxoid) to generate microaerobic conditions at 37°C and with shaking at 175 rpm for 4 h.
Shortly before taking the measurement, the luciferase substrate was prepared by diluting the luminescence substrate decanal (10% stock, Sigma Aldrich) at a 1 :2,000 dilution in luciferase reaction buffer. 60 µl of the substrate were added per well of a white 96 microwell plate (Thermo Scientific #236105) without the lid.
For the final luciferase measurement, 10 µl of bacterial solution were transferred with the epMotion 96 (Eppendorf) simultaneously to the wells containing the luciferase substrate and incubated on a microwell plate shaker for 10 s to lyse the bacteria. The measurements were recorded with a Perkin Elmer Victor 3/WNallac 1420 plate reader (luminometry, measurement time: 0.5 sec) and integrated to counts per sec. For the background measurement, 10 µl sterile medium containing 4% DMSO was added to the wells. For each measurement, at least four luciferase reporter positive control wells (without inhibitory compound) and four negative control wells (background without bacteria) were run on the same day and under the same assay conditions in parallel.

The subject of experiment [2] is H. pylori N6. As to the kind of experiment: vitality / metabolic (respiratory inhibition) counter-screen. In kind it is cell-based, Helicobacter pylori. The settings on record: > 100% indicates no inhibition. (A counterscreen serves to expose hits that act by an unwanted route or on another target.)
Experiment [3] deals with H. pylori. As to the kind of experiment: therapeutic treatment in chronic H. pylori mouse infection model (cfu counts, cagL PCR). In kind it is in vivo, C57B/L6 mice. Conditions: for reduction of colony-forming units (cfus) / bacterial loads in stomach: metronidazole 14.3 mg/kg/day, intragastric gavage. The procedure:
6-8 weeks old specific pathogen-free C57B/L6 mice were obtained from Charles River Laboratories. They were acclimatized to the new surroundings for one week before starting the assays. For the whole duration of the experiment, mice had access to sterile chow and sterile water ad libitum. In week one of the experiment, H. pylori was administered at 3×10^8 bacteria per mouse per inoculum (100 µl) on two days with one day of break in between. The proof-of-principle treatment was started two weeks after the end of the inoculation week, assuming a stable infection at this time point. The mice were treated in separate groups (8-14 animals per group), as outlined in the results, with compound(s), antibiotic (metronidazole at 14.3 mg/kg/day), a combination of both antibiotic and compound (for concentrations, see Results), or mock-treated once daily over seven consecutive days by intra-gastric gavage. After the treatment week, the mice were kept for another two weeks under normal housing and feeding conditions with sterilized chow and sterile water ad libitum. At the end of the assay period (week seven), the mice were necropsied by cervical dislocation under CO2 anesthesia. The animal experiments were authorized under German federal law by the LAVES (Lower Saxony Government Authority).
Then, BL2 was further tested for therapeutic efficacy in a mouse model of chronic H. pylori infection (Fig. 5). Six groups of mice (10 mice per group in each of the four infected and/or treated groups, and six mice in both of the control groups) were established in this mouse treatment trial. For the treatment groups, mice were infected in week one (using ca. 3×10^8 bacteria per animal; Methods), and the chronic infection was manifested for two more weeks. The once-daily treatment (intragastric gavage) started in week four on seven consecutive days. For the treatment groups, three H. pylori-infected groups were evaluated in parallel. One dose of treatment was given daily.
Group one was treated with metronidazole (14.3 mg/kg/day) only, an established anti-H. pylori antibiotic. The antibiotic concentration corresponds to concentrations routinely used in human treatment. Group two was treated with metronidazole (dosed at 14.3 mg/kg/day) and BL2 (10 mg/kg/day) in combination, and group three received BL2 (10 mg/kg/day) only. In addition, one infected and mock-treated group was kept as positive control, and two mock-infected groups were set aside, one for administering BL2 only (10 mg/kg/day; microbiota compound control) and one which was mock-infected and mock-treated (microbiota null control).
The read-out of successful treatment was the reduction of colony-forming units (cfus) of bacteria in infected and treated mice, over infected, non-treated, mice, at the end of the experiment. […] All mice in the infected positive control group were colonized (both cfu counts and PCR-positive), although the cfu counts in three positive animals were rather low.

[4] abbreviates: BL2 10 mg/kg/day, once daily, 7 days, versus infected control.

Converted amounts (≈) assume the structure as drawn. “And” between values parts separate entries of the source, which are not always exact repeats. Equal entries are not always repeated. “Also recorded” adds a separate entry of the source. Where two headings read alike, the source gives them in different places. Bounds are passed on as bounds.

As for `Cn1c(CSC(=N)N)c(Cl)c(=O)n1-c1ccccc1` [Active 2], the IC50 in experiment [1] (H. pylori flaA-luciferase reporter strain N6, Table 6) was 2.75 µg/mL (≈ 9.27 µM); in experiment [1] (Helicobacter pylori, H. pylori flaA-luciferase reporter strain N6, Table 6), less than 4.5 µg/mL; in experiment [1] (Helicobacter pylori, read-out: IC50 (luciferase assay), luciferase flagellar reporter assay, Table 3), 2.74 µg/mL and 8 µM. Further, the “Luciferase assay (% of control)” value in experiment [1] (H. pylori screen) is listed as 2,6 % of control. The “inhibitory activity in luciferase reporter assay” value in experiment [1] (result in words) was “strong inhibitor in the primary anti-flagellar reporter screen”. Also, the “Metabolic assay (% of control)” value in experiment [2] is 102,2 % of control. Besides, the “reduction of colony-forming units (cfus) / bacterial loads in stomach” value in experiment [3] (BL2 10 mg/kg/day, once daily, 7 days, versus infected control, listed as BL2) is “therapeutically effective; also recorded: significant activity in vivo; also recorded: significant therapeutic activity; also recorded: significantly effective in reducing bacterial loads”; in experiment [3] (BL2 10 mg/kg/day, once daily, 7 days, versus infected control, listed as active 2/BL2), “therapeutically active”. Moreover, in experiment [3] (setting [4]), the “cfu counts in the antrum” value is recorded as “statistically significant reduction of cfu counts in the antrum”. Also, the “cfus in the corpus” value in experiment [3] (setting [4]) was “trend towards reduced cfus”. The “gene-specific (cagL) PCR signal in stomach homogenates” value in experiment [3] (two weeks post-treatment, listed as BL2) is recorded as “strong reduction of gene-specific PCR signal; also recorded: below detection levels”.
